Results on three compounds are retold here after ChEMBL document CHEMBL1153935, “4,4'-Dihydroxy-trans-stilbene, a resveratrol analogue, exhibited enhanced antioxidant activity and cytotoxicity” (Bioorg Med Chem, 2009).

Molecules are shown by their SMILES. Calls of active or inactive are those of the source. No cut-off for these calls is given here.

The subject of assay [1] is Erythrocyte. Briefly: Inhibition of Fe(2+)/ascorbate-induced lipid peroxidation in human erythrocyte ghosts assessed as inhibition of malondialdehyde formation at 1 to 5 uM. The class given is functional, cell-based.
Assay [2] concerns Erythrocyte. Briefly: Inhibition of Fe(2+)/ascorbate-induced lipid peroxidation in human erythrocyte ghosts assessed as inhibition of malondialdehyde formation at 5 uM. It is filed as functional, cell-based.
The test system of assay [3] is Erythrocyte. The assay can be described thus: Inhibition of Fe(2+)/ascorbate-induced lipid peroxidation in human erythrocyte ghosts assessed as increase in inhibition period. It is filed as functional, cell-based.
In assay [4] the test system is Erythrocyte. The assay can be described thus: Inhibition of Fe(2+)/ascorbate-induced lipid peroxidation in human erythrocyte ghosts assessed as inhibition of malondialdehyde formation per mg of protein at 1 uM after 30 mins. The class given is functional.
Assay [5] concerns Erythrocyte. The assay can be described thus: Inhibition of Fe(2+)/ascorbate-induced lipid peroxidation in human erythrocyte ghosts assessed as inhibition of malondialdehyde formation per mg of protein at 2 uM after 30 mins. It is filed as functional.
For assay [6], the system named is Erythrocyte. The assay can be described thus: Inhibition of Fe(2+)/ascorbate-induced lipid peroxidation in human erythrocyte ghosts assessed as inhibition of malondialdehyde formation per mg of protein at 3 uM after 30 mins. The class given is functional.
The subject of assay [7] is HL-60. Briefly: Cytotoxicity against human HL60 cells after 48 hrs by MTT assay. It is filed as functional, cell-based. Particulars: for IC50: HL-60, 48 h. Background: Tetrazolium assays rely on reduction of a dye to a coloured formazan, in cell work by metabolically active cells.
Assay [8] relates to HL-60. The assay can be described thus: Cytotoxicity against human HL60 cells at 10 uM after 48 hrs by MTT assay. It is filed as functional.
In assay [9] the test system is HL-60. Briefly: Cytotoxicity against human HL60 cells at 20 uM after 48 hrs by MTT assay. It is filed as functional.
In assay [10] the test system is HL-60. The assay can be described thus: Cytotoxicity against human HL60 cells at 30 uM after 48 hrs by MTT assay. It is filed as functional.

One may read the IC50 as the concentration that gives 50% inhibition. In the case of `Oc1ccc(/C=C/c2cc(O)cc(O)c2)cc1` [RESVERATROL], the Activity entry in the assay on Erythrocyte [1] was “Dose-dependent effect”; in the assay on Erythrocyte [3], “Dose-dependent effect”; in the assay on Erythrocyte [4], 1.33 nmol; with Erythrocyte [5], 0.61 nmol; with Erythrocyte [6], 0.18 nmol; with HL-60 [7], “Dose-dependent effect”. The Activity in the assay on HL-60 [8] came out at 83%; in the assay with HL-60 [9], 72%; with HL-60 [10], 43%. Further, the result in the assay with Erythrocyte [2] was Active. In the assay on HL-60 [7], this compound registered a concentration for half-maximal inhibition (IC50) of 36.3 µM.
Take `Oc1ccc(/C=C/c2ccc(O)cc2)cc1` [TRANS-4,4'-DIHYDROXYSTILBENE]: the Activity in the assay on Erythrocyte [4] is given as 0.8 nmol; in the assay with Erythrocyte [5] it was 0.45 nmol; in the assay with Erythrocyte [6] it was 0.17 nmol. The same compound displayed a half-inhibitory concentration (IC50) in the assay on HL-60 [7] of 6.5 µM.
For `COc1cc([C@@H]2c3cc4c(cc3[C@@H](O[C@@H]3O[C@@H]5CO[C@@H](C)O[C@H]5[C@H](O)[C@H]3O)[C@H]3COC(=O)[C@H]23)OCO4)cc(OC)c1O` [ETOPOSIDE], in the assay with HL-60 [7], the IC50 worked out at 3.3 µM.
